Reference: US20110105517A1, “THERAPEUTIC AGENT FOR AMYOTROPHIC LATERAL SCLEROSIS” (priority 2008, published 2011)
Structures can show the parent of a compound that is named as a salt.

What was measured:
[1] = tested on: differentiated SH-SY5Y cells; assay: Cell viability assay 2: oxidative stress (menadione)-induced cell death in differentiated neuronal cells; type: cell-based, human; conditions: retinoic acid-differentiated cells; pre-treatment 5, 10, 20, 40 μM for 24 h; menadione 20-50 μM for 4 h; AlamarBlue; versus DMSO alone; FIG. 2
Description: SH-SY5Y cells were suspended in DMEM supplemented with 10% FBS, were plated at 1.0×10^4 cells/well in 96 well microtiter plate, and were incubated in 5% CO2 at 37° C. for 24 hours. The medium was then replaced with DMEM supplemented with 10% FBS and 10 μM all-trans retinoic acid (RA) (DMEM/FBS/RA), and after 5 days, bromocriptine mesylate in DMSO was added to the medium at the final concentrations of 5, 10, 20 and 40 μM. The amount of DMSO used in each samples were adjusted to that used in the 40 μM sample. The cells were cultured for additional 24 hours (bromocriptine mesylate treatment). As a negative control, DMSO without bromocriptine mesylate was added. Menadione was then added to the SH-SY5Y cells treated either with DMSO alone or bromocriptine mesylate at the final concentrations of 0, 20, 30, 40, and 50 μM, and cultured in 5% CO2 at 37° C. (oxidative stress treatment). As a negative control, 0.1% Triton X-100/DMEM/10% FBS was added. After 4 hours of oxidative stress treatment, the medium was replaced with that containing AlamarBlue, and the cell culture was resumed in 5% CO2, at 37° C. After 16 hours of incubation, the number of viable cells was counted by measuring the fluorescence at excitation wave length 530 nm/emission wave length 580 nm, using the fluorescence plate reader. […]

ALS-SOD1^H46R mouse [2] = assay: Efficacy test in vivo: motor function in vertical climb test; conditions: 10 mg/kg i.p. once a day from onset of symptoms; n=5; non-administered group deteriorated significantly; FIG. 3
Description: (§1) In this test, ALS-SOD1^H46R mouse carrying the mutation in the SOD1 gene (SOD1^H46R) (ALS1) was used. The mice were housed at 23° C. with a 12 hr light/dark cycle. Bromocriptine mesylate was suspended in 0.5% carboxymethylcellulose sodium (CMC-Na). The administration of bromocriptine mesylate was initiated when the neurological symptoms was first observed (first manifestation of the illness) in the ALS-SOD1^H46R mouse in the balance beam test. The dosage of bromocriptine mesylate was 10 mg or 1 mg per 1 kg of body weight in each of the animals, and administered by intraperitoneal injection once a day until the animals died (group treated with bromocriptine mesylate). As the negative control, the mice were administered with 0.5% CMC-Na (5 ml/kg) (group not treated with bromocriptine mesylate). Balance beam test (stainless beam: 50 cm long, 0.9 cm wide) was employed to evaluate the appearance of neurological symptoms. The evaluation of symptoms was carried out in 5 grades. Grade 3 was considered to be the first manifestation of the symptoms. The evaluation criteria used are shown below.
The motor functions of mice in bromocriptine mesylate administered group and non-administered group were evaluated by vertical climb test (stainless bar: 50 cm long, 0.9 cm wide). […] The best score among the 5 test results was recorded as the motor function value. […]

HeLa cells = assay: Cell viability assay 1: oxidative stress (menadione)-induced cell death in non-neuronal cells; type: cell-based; conditions: pre-treatment 2.5, 5, 10 μM for 24 h; menadione 20-80 μM for 4 h; AlamarBlue; versus DMSO alone; FIG. 1
Description: HeLa cells (1.0×10^6) were plated in 75 cm^2 flask and were cultured in the presence of 5% CO2 at 37° C. for 16 hours. Bromocriptine mesylate in DMSO was then added to the medium at the final concentrations of 2.5, 5 and 10 μM. The amount of DMSO used in each samples were adjusted to that used in the 10 μM sample. Cells were cultured for additional 24 hours (bromocriptine mesylate treatment). As a negative control, DMSO without bromocriptine mesylate was added. Menadione was then added to the HeLa cells treated with bromocriptine mesylate at the final concentrations of 0, 20, 40, 60 and 80 μM and the cells were further incubated in 5% CO2, at 37° C. (oxidative stress treatment). As a negative control, 0.1% Triton X-100/DMEM/10% FBS was added in place of menadione. After 4 hours of oxidative stress treatment, the medium was replaced with that containing AlamarBlue, and the cell culture was resumed in 5% CO2, at 37° C. After 16 hours of incubation, the number of viable cells was counted by measuring the fluorescence at excitation wave length 530 nm/emission wave length 580 nm, using the fluorescence plate reader.
The X-axis of the graph represents menadione concentration (μM), while the Y-axis of the graph represents cell viability (%). The Y-axis values under each condition are shown as viability relative to the no menadione treatment (0 μM) control which is set at 100%.

ALS-SOD1^H46R mouse [3] = assay: Efficacy test in vivo: survival after the onset of the disease; conditions: i.p. once a day from onset, non-administered group 27.8±2.1 day, FIG. 4
Description: as §1

Structure (SMILES): CC(C)C[C@H]1C(=O)N2CCC[C@H]2[C@]2(O)O[C@](NC(=O)[C@@H]3C=C4c5cccc6[nH]c(Br)c(c56)C[C@H]4N(C)C3)(C(C)C)C(=O)N12 [bromocriptine mesylate]
- viabilities of SH-SY5Y cells exposed to oxidative stress by menadione [1]: increased depending on the concentration of bromocriptine mesylate
- motor function (vertical climb test) at 21 weeks of age (ALS-SOD1^H46R mouse [2]): largely unchanged
- viabilities of HeLa cells exposed to oxidative stress by menadione (HeLa cells): increased depending on the concentration of bromocriptine mesylate
- overall survival after the onset of the disease (ALS-SOD1^H46R mouse [3]; 1 mg/kg, n=4): 35.3 ± 6.0 days
- overall survival after the onset of the disease (ALS-SOD1^H46R mouse [3]; 10 mg/kg, n=5): 38.0 ± 2.9 days
